Reference: article PMC6152192, “Novel Methylselenoesters as Antiproliferative Agents” (Molecules : A Journal of Synthetic Chemistry and Natural …, 2017)
Values joined by “and” are separate entries in the source; they are usually repeats but may differ in a detail not shown here. Equal entries are not always repeated.

Columns and labels:
Assay type in all cases: cell-based
[1] = tested on: PC-3 (prostate adenocarcinoma); assay: MTT viability assay, PC-3; details: PC-3, 72 h, MTT; for CC50: read-out: LC50 (the source's name)
Procedure: (§1) The novel compounds were tested against a panel of different cancer lines: PC-3 (prostate adenocarcinoma), MCF7 (mammary adenocarcinoma), HTB-54 (lung carcinoma), K-562 (chronic myelogenous leukemia) and HT-29 (colorectal adenocarcinoma). Two non-malignant cell lines, BEAS-2B (bronchial epithelial) and 184B5 (mammary epithelial) were also included to evaluate the toxicity of the novel synthesized compounds. The antiproliferative activity was measured with the [3-(4,5-dimethylthiazol-2-yl)-2,5-diphenyltetrazolium bromide] (MTT) assay after 72 h treatment. Six concentrations ranging from 0.1 to 100 μM were tested. MSA is largely known as the main CH3SeH putative precursor and was therefore included as positive control. The following parameters were calculated: GI50 (concentration which reduces the growth by 50%), TGI (concentration completely inhibiting growth) and LC50 (concentration that kills 50% of the cells).
(§2) All cells were purchased from the American Type Culture Collection (ATCC, Barcelona, Spain). HT-29 (colorectal adenocarcinoma), HTB-54 (grade III lung carcinoma), MCF7 (mammary adenocarcinoma), PC-3 (grade IV prostate adenocarcinoma) and K-562 (chronic myelogenous leukemia) were cultured in RPMI (Gibco, Madrid, Spain), 10% FBS (Gibco), 100 units/mL penicillin and 100 μg/mL streptomycin (Gibco). BEAS-2B cell line (normal epithelial lung) was cultured in DMEM (Gibco), 10% FBS, 100 units/mL penicillin and 100 μg/mL streptomycin. 184B5 (normal mammary gland) cell line was cultured in DMEM:F12 supplemented with 5% FBS, 1 × ITS (Lonza, Barcelona, Spain), 100 nM hydrocortisone (Sigma-Aldrich), 2 mM sodium pyruvate (Lonza), 20 ng/mL EGF (Sigma-Aldrich), 0.3 nM trans-retinoic acid (Sigma-Aldrich), 100 units/mL penicillin and 100 µg/mL streptomycin. Cells were cultured at 37 °C under 5% CO2.
(§3) Cell viability after treatment was assessed by the well-known 3-(4,5-dimethyl-thiazol-2-yl)-2,5-diphenyltetrazolium bromide (MTT, Sigma-Aldrich) assay. Briefly, 10,000 cells were seeded in 96-well plates, treated and incubated for 72 h. Dilutions of the compounds in cell medium were freshly prepared from a 0.01 M stock in DMSO. After treatment, 50 μL of MTT solution in PBS (2 mg/mL) were added and cells were incubated for 4 h. Medium was removed and 150 μL of DMSO was added to dissolve the formed formazan crystals. Absorbance was read at 550 nm in a microplate absorbance reader (Sunrise, Tecan, Männedorf, Switzerland).

[2] = tested on: MCF7 (mammary adenocarcinoma); assay: MTT viability assay, MCF7; details: MCF7, 72 h, MTT; for CC50: read-out: LC50 (the source's name)
Procedure: as §1, §2, §3

[3] = tested on: 184B5 (non-malignant mammary epithelium); assay: MTT viability assay, 184B5; details: 184B5 non-malignant, 72 h, MTT; for CC50: read-out: LC50 (the source's name)
Procedure: as §1, §2, §3

[4] = tested on: K-562 (chronic myelogenous leukemia); assay: MTT viability assay, K-562; details: K-562, 72 h, MTT; for CC50: read-out: LC50 (the source's name)
Procedure: as §1, §2, §3

[5] = tested on: HT-29 (colorectal adenocarcinoma); assay: MTT viability assay, HT-29; details: HT-29, 72 h, MTT; for CC50: read-out: LC50 (the source's name)
Procedure: as §1, §2, §3

HTB-54 (lung carcinoma) = assay: MTT viability assay, HTB-54; details: HTB-54, 72 h, MTT; for CC50: read-out: LC50 (the source's name)
Procedure: as §1, §2, §3

[6] = tested on: BEAS-2B (non-malignant bronchial epithelial); assay: MTT viability assay, BEAS-2B; details: BEAS-2B non-malignant, 72 h, MTT; for CC50: read-out: LC50 (the source's name)
Procedure: as §1, §2, §3

Substance	GI50 [1]	TGI [1] [µM]	CC50 [1] [µM]	GI50 [2] [µM]	TGI [2] [µM]	CC50 [2] [µM]	GI50 [3] [µM]	TGI [3] [µM]	CC50 [3] [µM]	GI50 [4] [µM]	TGI [4] [µM]	CC50 [4] [µM]	GI50 [5] [µM]	TGI [5] [µM]	CC50 [5] [µM]	GI50 (HTB-54 (lung carcinoma))	CC50 (HTB-54 (lung carcinoma)) [µM]	GI50 [6] [µM]	TGI [6] [µM]	CC50 [6] [µM]	further results
Dimethyl 5-cyano-1,3-benzenedicarboselenoate [Compound 14]	7.2 ± 3.5 µM	32.3 ± 3.7	68.7 ± 3	4.9 ± 0.8	8.4 ± 1.1	54.4 ± 2.7	3.8 ± 0.7	6.5 ± 0.6	9.3 ± 0.7	29.9 ± 0.6	54.7 ± 0.7	79.5 ± 0.7	3.8 ± 0.1	7.9 ± 0.7	> 100	3.8 ± 0.6 µM	66.5 ± 4.5	3.2 ± 0.7	5.5 ± 0.5	7.8 ± 0.3	
Methyl 1,3-benzodioxole-5-carboselenoate [Compound 8]	5.7 ± 1.6 µM	11.0 ± 3.1	96 ± 4.7	4.6 ± 0.5	9.2 ± 1.3	68.7 ± 2.5	3.7 ± 0.3	6.4 ± 0.2	9 ± 0.4	29.7 ± 4.7	62.6 ± 3.9	95.4 ± 4.9	5.9 ± 0.8	27.7 ± 4.5	81.1 ± 4	6 ± 0.9 µM	77.1 ± 4.9	3.1 ± 0.3	5.6 ± 0.6	8 ± 1.1	TGI (HTB-54 (lung carcinoma)): 23.2 ± 2.6 µM
Methyl 2-(4-pyridyl)thiazole-4-carboselenoate [Compound 12]	> 10 µM and 16.9 µM	50.9 ± 4.9	85 ± 4.7	4.4 ± 1	8.1 ± 1.7	56.2 ± 9.6	3.4 ± 0.3	6.5 ± 0.8	9.6 ± 2.8	82 ± 4.4	>100	> 100	5.1 ± 0.1	14.2 ± 6.6	> 100	9.8 ± 5.1 µM	80.5 ± 3.5	3.7 ± 1.3	6.4 ± 1.3	9.2 ± 1	TGI (HTB-54 (lung carcinoma)): 44.9 ± 3.7 µM
Methyl 2-phenyl-4-quinolinecarboselenoate [Compound 10]	4.4 ± 1.3 µM		70.9 ± 5.2	5.6 ± 1.3	51.3 ± 3.7	> 100	3.9 ± 0.7	6.3 ± 0.5	8.7 ± 0.4	9.7 ± 4.9	59.1 ± 3.5	> 100	4.1 ± 0.3	7.5 ± 0.7	35 ± 2.4	5.9 ± 1.1 µM	64.4 ± 4.2	3.1 ± 0.5	5.5 ± 0.4	7.8 ± 0.5	TGI (HTB-54 (lung carcinoma)): 16.7 ± 2.3 µM
Methyl 2-thiophencarboselenoate [Compound 4]	5.2 ± 0.9 µM	19.4 ± 3.6	62 ± 4.9	5.3 ± 1.4	22.8 ± 3.8	89.6 ± 4.1	3.6 ± 0.8	7.2 ± 1.4	27.9 ± 4.6	40.6 ± 4.5	74.6 ± 4.9	> 100	3.4 ± 0.2	7.2 ± 1.2	47.5 ± 3.2	8.5 ± 3.1 µM	73.9 ± 4.1	2.9 ± 0.3	5.8 ± 0.7	8.7 ± 2.1	TGI (HTB-54 (lung carcinoma)): 39.0 ± 3.1 µM
Methyl 4-methoxybenzoselenoate [Compound 2]	7.3 ± 1.7 µM	45.1 ± 4.5	> 100	4.1 ± 0.8	9.3 ± 4.1	74.8 ± 4	3.7 ± 0.8	6.4 ± 1.5	9 ± 2.1	40.8 ± 4.8	70.6 ± 5.9	> 100	4.1 ± 0.1	7.5 ± 1.1	50 ± 2.4	6.8 ± 1.7 µM	70 ± 2.9	3.2 ± 0.5	5.8 ± 0.6	8.4 ± 1	TGI (HTB-54 (lung carcinoma)): 29.7 ± 4.3 µM
Methyl 9-acridinecarboselenoate [Compound 13]		>100	> 100	4.2 ± 1.8	35.4 ± 4.7	83.4 ± 4.1	6.6 ± 1.2	26.8 ± 1.0	65 ± 4.5				6 ± 0.5	16.5 ± 1.9	66.6 ± 0.1			3.8 ± 0.1	6.4 ± 0.2	8.9 ± 0.4	
Methyl benzo[b]thiophene-2-carboselenoate [Compound 7]	> 10 µM and 18.4 µM	47.8 ± 3.9	77.3 ± 4.5	6.9 ± 1.4	61.6 ± 4.1	> 100	3.9 ± 1.2	6.9 ± 1.7	9.9 ± 0.8	29.2 ± 4.4	58.8 ± 1.5	88.3 ± 3.3	3.7 ± 0.2	7.4 ± 0.9	41.8 ± 4.5	> 10 µM and 17.5 µM	93.4 ± 4.8	3.9 ± 0.6	6.8 ± 0.8	9.8 ± 1.1	TGI (HTB-54 (lung carcinoma)): 55.4 ± 4.4 µM
